# Data as given in ChEMBL document CHEMBL4330078, “Discovery of potent Pan-Raf inhibitors with increased solubility to overcome drug resistance” (Eur J Med Chem, 2019).
# Legend:
# [1] = Half life in human liver microsomes at 0.5 uM by LC-MS/MS analysis; assay type: ADME, Microsome
# [2] = AUC (0 to t) in Sprague-Dawley rat at […], iv by LC-MS/MS analysis; assay type: ADME, organism-based; settings: in vivo
# [3] = Tmax in Sprague-Dawley rat at […], iv by LC-MS/MS analysis; assay type: ADME, organism-based; settings: in vivo
# [4] = Volume of distribution at steady state in Sprague-Dawley rat at […], iv by LC-MS/MS analysis; assay type: ADME, organism-based; settings: in vivo, read-out: Vdss
# [5] = AUC (0 to t) in Sprague-Dawley rat at 10 mg/kg, po by LC-MS/MS analysis; assay type: ADME, organism-based; settings: in vivo
# [6] = Clearance in Sprague-Dawley rat at […], iv by LC-MS/MS analysis; assay type: ADME, organism-based; settings: in vivo
# [7] = Half life in Sprague-Dawley rat at […], iv by LC-MS/MS analysis; assay type: ADME, organism-based; settings: in vivo
# [8] = AUC (0 to infinity) in Sprague-Dawley rat at 10 mg/kg, po by LC-MS/MS analysis; assay type: ADME, organism-based; set-up: dose 10 mg/kg, route oral, time infinity; settings: in vivo
# [9] = Cmax in Sprague-Dawley rat at 10 mg/kg, po by LC-MS/MS analysis; assay type: ADME, organism-based; set-up: dose 10 mg/kg, route oral; settings: in vivo
# [10] = Oral bioavailability in Sprague-Dawley rat at 10 mg/kg by LC-MS/MS analysis; assay type: ADME, organism-based; settings: in vivo
# [11] = Cmax in Sprague-Dawley rat at […], iv by LC-MS/MS analysis; assay type: ADME, organism-based; set-up: dose 2.5 mg/kg, route intravenous; settings: in vivo
# [12] = Tmax in Sprague-Dawley rat at 10 mg/kg, po by LC-MS/MS analysis; assay type: ADME, organism-based; settings: in vivo
# [13] = AUC (0 to infinity) in Sprague-Dawley rat at […], iv by LC-MS/MS analysis; assay type: ADME, organism-based; set-up: dose 2.5 mg/kg, time infinity, route intravenous; settings: in vivo
half-life at 0.5 µM [1] [h],AUC(0-t) [2] [ng·h/mL],Tmax [3] [min],Vd [4] [L/kg],AUC(0-t) [5] [ng·h/mL],clearance [6] [mL/min/kg],half-life [7] [h],AUC(0-inf) [8] [ng·h/mL],Cmax [9] [ng/mL],bioavailability [10] [%],Cmax [11] [ng/mL],Tmax [12] [h],AUC(0-inf) [13] [ng·h/mL],SMILES
5.6,,,,,,,,,,,,,CNC(=O)c1cc(Oc2ccc(NC(=O)Nc3ccc(Cl)c(C(F)(F)F)c3)cc2)ccn1 [SORAFENIB]
6.5,549,4.98,45.7,503,68.3,7.7,522,72.1,22.9,272,4,607,Cc1ccc(C(=O)Nc2ccc(OCC3CCN(C)CC3)c(C(F)(F)F)c2)cc1NC(=O)C1(c2ncnc3[nH]ccc23)CC1
